Biological target: T1, Steroid 17-alpha-hydroxylase/17,20 lyase (Homo sapiens, UniProt P05093)
T1 sequence (P05093 whole entry): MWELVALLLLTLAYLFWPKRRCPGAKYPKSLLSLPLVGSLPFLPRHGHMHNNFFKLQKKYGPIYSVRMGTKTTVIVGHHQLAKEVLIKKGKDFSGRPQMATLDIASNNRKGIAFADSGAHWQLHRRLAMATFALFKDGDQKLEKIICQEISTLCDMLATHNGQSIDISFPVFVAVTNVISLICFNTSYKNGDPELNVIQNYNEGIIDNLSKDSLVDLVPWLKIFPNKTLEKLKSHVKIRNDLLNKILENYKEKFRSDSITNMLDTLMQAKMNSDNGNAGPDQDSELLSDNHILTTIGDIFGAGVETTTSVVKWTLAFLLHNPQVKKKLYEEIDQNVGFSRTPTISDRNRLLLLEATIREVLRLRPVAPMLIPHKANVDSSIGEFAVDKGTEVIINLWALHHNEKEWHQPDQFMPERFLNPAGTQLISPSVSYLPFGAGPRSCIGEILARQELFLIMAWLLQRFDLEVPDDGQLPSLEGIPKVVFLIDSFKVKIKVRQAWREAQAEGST
Assay: CYP17 Assay
Settings: pH 7.4; 37 °C

Row | Structure (SMILES) | IC50 [nM]
1 | COc1ccc2c(c1)CCC(Cc1cnc[nH]1)=C2C | 110
2 | Oc1ccc(-c2ccc(Cn3ccnc3)cc2)cc1O [4-[4-(1H-imidazol-1-ylmethyl)phenyl]benzene-1,2-diol] | 120
3 | COc1cc2c(cc1OC)C(C)=C(Cc1cnc[nH]1)CC2 [5-[(6,7-dimethoxy-1-methyl-3,4-dihydronaphthalen-2-yl)methyl]-1H-imidazole] | 490
4 | COc1cc2c(cc1O)C(C)=C(Cc1cnc[nH]1)CC2 [dihydronaphthalene derivative] | 1100

Reference: BindingDB's records for doi:10.1080/14756360310001640913 (Saarland University, 2004)
